Values joined by “and” are separate entries in the source; they are usually repeats but may differ in a detail not shown here. Equal values may be shown once.
Tested on: 422866-222-R5-J1-PDC spheroid viability
Assay: Anticancer human tumor 422866-222-R5-J1-PDC patient-derived pancreatic adenocarcinoma cell line growth inhibition [CLK]
Conditions: spheroids with HUVEC and MSC; for viability, T/C: stronger effect = lower value
Summary of the method: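 Patient-derived tumor cells grown as complex spheroids with HUVEC endothelial cells and mesenchymal stem cells, treated with drug combinations. Concentrations descend in half-log steps from near clinical Cmax, or from 10 microM if Cmax unknown.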

[1] = curve of first compound, second compound 0.0316 µM
[2] = curve of first compound, second compound 0.1 µM
[3] = curve of first compound, second compound 0.316 µM
[4] = curve of first compound, second compound 1 µM
[5] = curve of first compound, second compound 3.16 µM
[6] = curve of first compound, second compound 10 µM
[7] = second compound 0.0316 µM, first compound 0.0316 µM
[8] = second compound 0.0316 µM, first compound 0.1 µM
[9] = second compound 0.0316 µM, first compound 0.316 µM
[10] = second compound 0.0316 µM, first compound 1 µM
[11] = second compound 0.1 µM, first compound 0.0316 µM
[12] = second compound 0.1 µM, first compound 0.1 µM
[13] = second compound 0.1 µM, first compound 0.316 µM
[14] = second compound 0.1 µM, first compound 1 µM
[15] = second compound 0.316 µM, first compound 0.0316 µM
[16] = second compound 0.316 µM, first compound 0.1 µM
[17] = second compound 0.316 µM, first compound 0.316 µM
[18] = second compound 0.316 µM, first compound 1 µM
[19] = second compound 1 µM, first compound 0.0316 µM
[20] = second compound 1 µM, first compound 0.1 µM
[21] = second compound 1 µM, first compound 0.316 µM
[22] = second compound 1 µM, first compound 1 µM
[23] = second compound 3.16 µM, first compound 0.0316 µM
[24] = second compound 3.16 µM, first compound 0.1 µM
[25] = second compound 3.16 µM, first compound 0.316 µM
[26] = second compound 3.16 µM, first compound 1 µM
[27] = second compound 10 µM, first compound 0.0316 µM
[28] = second compound 10 µM, first compound 0.1 µM
[29] = second compound 10 µM, first compound 0.316 µM
[30] = second compound 10 µM, first compound 1 µM
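Further: spheroids exposed to agents for seven days before readout.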

## CC(=O)O[C@H]1C(=O)[C@@]2(C)[C@H]([C@H](OC(=O)c3ccccc3)[C@]3(O)C[C@H](OC(=O)[C@H](O)[C@@H](NC(=O)c4ccccc4)c4ccccc4)C(C)=C1C3(C)C)[C@]1(OC(C)=O)CO[C@@H]1C[C@@H]2O + CN1CCN(c2cc(C(=O)Nc3cc4cc(-c5cnn(C)c5)ccc4cn3)ccn2)CC1
[1]
  IC50: > 10000 nM
[2]
  IC50: > 10000 nM
[3]
  IC50: > 10000 nM
[4]
  IC50: < 31.6 nM
[5]
  IC50: < 31.6 nM
[6]
  IC50: < 31.6 nM
[7]
  viability, T/C: 72.2%
[8]
  viability, T/C: 61.6%
[9]
  viability, T/C: 61.4%
[10]
  viability, T/C: 69.7%
Second compound 0.0316 µM, first compound 3.16 µM
  viability, T/C: 78.1%
Second compound 0.0316 µM, first compound 10 µM
  viability, T/C: 85.3%
[11]
  viability, T/C: 70.5%
[12]
  viability, T/C: 61.9%
[13]
  viability, T/C: 73.1%
[14]
  viability, T/C: 81.5%
Second compound 0.1 µM, first compound 3.16 µM
  viability, T/C: 83.8%
Second compound 0.1 µM, first compound 10 µM
  viability, T/C: 95.4%
[15]
  viability, T/C: 68.7%
[16]
  viability, T/C: 73%
[17]
  viability, T/C: 72.3%
[18]
  viability, T/C: 69.7%
Second compound 0.316 µM, first compound 3.16 µM
  viability, T/C: 72.7%
Second compound 0.316 µM, first compound 10 µM
  viability, T/C: 85.4%
[19]
  viability, T/C: 21.8%
[20]
  viability, T/C: 20.5%
[21]
  viability, T/C: 18.8%
[22]
  viability, T/C: 19.6%
Second compound 1 µM, first compound 3.16 µM
  viability, T/C: 18.7%
Second compound 1 µM, first compound 10 µM
  viability, T/C: 16.4%
[23]
  viability, T/C: 6.64%
[24]
  viability, T/C: 7.47%
[25]
  viability, T/C: 8.49%
[26]
  viability, T/C: 4.12%
Second compound 3.16 µM, first compound 3.16 µM
  viability, T/C: 9.46%
Second compound 3.16 µM, first compound 10 µM
  viability, T/C: 8%
[27]
  viability, T/C: 1.52%
[28]
  viability, T/C: 1.43%
[29]
  viability, T/C: 1.2%
[30]
  viability, T/C: 1.05%
Second compound 10 µM, first compound 3.16 µM
  viability, T/C: 0.96%
Second compound 10 µM, first compound 10 µM
  viability, T/C: 1.27%

## CCN1CCN(Cc2ccc(Nc3ncc(F)c(-c4cc(F)c5nc(C)n(C(C)C)c5c4)n3)nc2)CC1 + CN1CCN(c2cc(C(=O)Nc3cc4cc(-c5cnn(C)c5)ccc4cn3)ccn2)CC1
[1]
  IC50: > 1000 nM
[2]
  IC50: > 1000 nM
[3]
  IC50: > 1000 nM
[4]
  IC50: < 3.16 nM
[5]
  IC50: < 3.16 nM
[6]
  IC50: < 3.16 nM
Second compound 0.0316 µM, first compound 0.00316 µM
  viability, T/C: 110%
Second compound 0.0316 µM, first compound 0.01 µM
  viability, T/C: 101%
[7]
  viability, T/C: 89%
[8]
  viability, T/C: 88.8%
[9]
  viability, T/C: 90.8%
[10]
  viability, T/C: 110%
Second compound 0.1 µM, first compound 0.00316 µM
  viability, T/C: 122%
Second compound 0.1 µM, first compound 0.01 µM
  viability, T/C: 113%
[11]
  viability, T/C: 93.8%
[12]
  viability, T/C: 85.5%
[13]
  viability, T/C: 72.5%
[14]
  viability, T/C: 107%
Second compound 0.316 µM, first compound 0.00316 µM
  viability, T/C: 103%
Second compound 0.316 µM, first compound 0.01 µM
  viability, T/C: 84.9%
[15]
  viability, T/C: 89%
[16]
  viability, T/C: 72.3%
[17]
  viability, T/C: 69.4%
[18]
  viability, T/C: 84.5%
Second compound 1 µM, first compound 0.00316 µM
  viability, T/C: 34.6%
Second compound 1 µM, first compound 0.01 µM
  viability, T/C: 37.7%
[19]
  viability, T/C: 34.4%
[20]
  viability, T/C: 41.9%
[21]
  viability, T/C: 53.5%
[22]
  viability, T/C: 49.8%
Second compound 3.16 µM, first compound 0.00316 µM
  viability, T/C: 8.29%
Second compound 3.16 µM, first compound 0.01 µM
  viability, T/C: 8.47%
[23]
  viability, T/C: 8.82%
[24]
  viability, T/C: 7.58%
[25]
  viability, T/C: 9.92%
[26]
  viability, T/C: 13.5%
Second compound 10 µM, first compound 0.00316 µM
  viability, T/C: 1.95%
Second compound 10 µM, first compound 0.01 µM
  viability, T/C: 2.42%
[27]
  viability, T/C: 1.51%
[28]
  viability, T/C: 1.89%
[29]
  viability, T/C: 2.56%
[30]
  viability, T/C: 1.96%

## C=C(F)C(=O)N1CCN(c2nc(OCC3CCCN3C)nc3c2CCN(c2cccc4cccc(Cl)c24)C3)CC1CC#N (stereo unspecified)
Compound 0.0316 µM
  viability, T/C: 31.6% and 42%
Compound 0.1 µM
  viability, T/C: 23.6% and 24.5%
Compound 0.316 µM
  viability, T/C: 19.6% and 21%
Compound 1 µM
  viability, T/C: 26.1% and 22.8%
Compound 3.16 µM
  viability, T/C: 11.2% and 15.2%
Compound 10 µM
  viability, T/C: 0.14%
Curve of compound
  IC50: < 31.6 nM

Reference: PubChem BioAssay AID2060603 (Molecular Pharmacology Branch, DTP, NCI, 2025)
